Experimental data from BindingDB's records for doi:10.1021/acs.jnatprod.7b00121 (Seoul National University, 2017).

Target: T1, Sortase family protein (Staphylococcus aureus, UniProt Q9S446)
T1 sequence (Q9S446 whole entry): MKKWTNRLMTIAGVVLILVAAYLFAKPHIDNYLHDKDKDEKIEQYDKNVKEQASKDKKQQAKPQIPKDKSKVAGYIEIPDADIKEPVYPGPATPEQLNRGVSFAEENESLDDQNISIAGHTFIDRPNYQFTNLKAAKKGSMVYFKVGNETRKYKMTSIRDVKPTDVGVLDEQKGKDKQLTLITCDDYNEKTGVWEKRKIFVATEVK
Experiment: Inhibition of Staphylococcus aureus ATCC 6538p SortA expressed in Escherichia coli using Dabcyl-QALPETGEE-Edans as substrate after 1 hr by fluorescence spectrophotometric method

O=C(O)c1cc[c]([Hg][OH])cc1
IC50: 25 µM
